Reference: PubChem BioAssay (NCI)
Values joined by “and” are separate entries in the source; they are usually repeats but may differ in a detail not shown here. Equal entries are not always repeated.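 Exposure lasted 48 hours, with cells grown in 96-well plates and compounds tested at five concentrations. GI50 is the concentration that inhibits growth by half. TGI denotes the concentration required for complete inhibition of growth.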

Tests used:
Assay in all cases: NCI tumour cell line growth inhibition, 48 h
A549 NSCLC = test system: A549 NSCLC
HCC-2998 colon = test system: HCC-2998 colon
HOP-62 NSCLC = test system: HOP-62 NSCLC
MDA-MB-231 breast = test system: MDA-MB-231 breast
NCI-H226 lung = test system: NCI-H226 lung
NCI-H460 lung = test system: NCI-H460 lung
OVCAR-3 ovarian = test system: OVCAR-3 ovarian
SK-MEL-5 melanoma = test system: SK-MEL-5 melanoma
T-47D breast = test system: T-47D breast

Row | SMILES | GI50 (A549 NSCLC) | TGI (A549 NSCLC) [µM] | GI50 (HCC-2998 colon) | TGI (HCC-2998 colon) [µM] | GI50 (HOP-62 NSCLC) | TGI (HOP-62 NSCLC) | GI50 (MDA-MB-231 breast) | TGI (MDA-MB-231 breast) [µM] | GI50 (NCI-H226 lung) | TGI (NCI-H226 lung) | GI50 (NCI-H460 lung) | TGI (NCI-H460 lung) [µM] | GI50 (OVCAR-3 ovarian) | TGI (OVCAR-3 ovarian) [µM] | GI50 (SK-MEL-5 melanoma) | TGI (SK-MEL-5 melanoma) | GI50 (T-47D breast) | TGI (T-47D breast)
1 | C=CC[n+]1c(/C=C/C=C2\N(C)c3ccccc3C2(C)C)sc2ccc(OC)cc21 | 0.279 µM | 16.1 | 0.258 µM | 21.3 | 0.291 µM | 11.9 µM | 0.272 µM | 1.65 | 0.282 µM | 13 µM | 0.199 µM | 12.1 | 0.176 µM | 22.2 | 0.0615 µM | 0.239 µM | 0.0231 µM | 0.561 µM
2 | CCOC(=O)c1ccc2[nH]c(-c3ccc(S(=O)(=O)F)cc3)cc(=O)c2c1 |  | > 100 |  | 40 |  | > 100 µM |  | > 100 |  | > 100 µM |  | > 100 |  | 50.3 |  | > 100 µM |  | > 100 µM
3 | Cc1ccc([N+](=O)[O-])cc1NC(=O)Nc1cccc(F)c1 | 3.42 µM | 26.2 | 4.02 µM | > 100 | 9.77 µM | 43 µM | 13.3 µM | 96.6 | 7.54 µM | > 100 µM | 3.09 µM | 16.1 | 3.25 µM | 11.7 | 4.04 µM | > 100 µM | 3.45 µM | > 100 µM
4 | COC(=O)[C@@]12C(=O)C=CC(=O)[C@@H]1C1C(=CC2COC(C)=O)O[C@@H]2OC3(CCCCC3)O[C@H]12 (stereo not given in full) |  | 22.4 |  | 30.4 |  | 35 µM |  | 39.9 |  | 32.4 µM |  | 32.9 |  | 17.1 |  | 32.5 µM |  | 13.2 µM
5 | C[C@@H]1COCCN1c1cc(C2([S@](C)(=N)=O)CC2)nc(-c2ccnc3[nH]ccc23)n1 | 3.46 µM and 4.02 µM | > 100 | 2.56 µM and 4.97 µM | > 100 | 2.86 µM and 1.75 µM | 52.1 µM and > 10 µM | 7.28 µM and 7.53 µM | > 100 | 4.98 µM and 8.53 µM | 51.3 µM and > 10 µM | 1.04 µM and 2.1 µM | > 100 | 4.16 µM and 5.15 µM | > 80.6 | 3.6 µM and 3.87 µM | 15.7 µM and > 10 µM | 3.96 µM and 7.78 µM | 35.8 µM and > 10 µM
6 | Nc1c(C(=O)c2cccc(CCCN3CCOCC3)c2)cnn1-c1ccc(F)cc1 | > 25 µM | > 25 | > 25 µM | > 25 | > 25 µM | > 25 µM | > 25 µM | > 25 | > 25 µM | > 25 µM | > 25 µM | > 25 | > 25 µM | > 25 | 24.7 µM | > 25 µM | > 23.7 µM | > 25 µM
